# In the NIST ThermoML archive (doi:10.1021/je100725a):
# Numbers after ± are expanded uncertainties.
# Tests used:
# [1] = Crystal
# [2] = Molar enthalpy of transition or fusion; conditions: Crystal; DSC
SMILES,Normal melting temperature [1] [°C],Normal melting temperature ([1]; DTA) [°C],Molar enthalpy of transition or fusion [2] [kcal/mol]
CCCCCCCCCC(C)=O [2-undecanone],11.7 ± 0.6,12.11 ± 0.39,–
CCCCCCCCCCCCO [dodecan-1-ol],23.5 ± 0.6,–,9.02 ± 0.194
CCCCCCCC(C)=O [2-nonanone],-9.8 ± 0.6,-9.47 ± 0.39,6.54 ± 0.146
CCCCCCCCO [octan-1-ol],-14.5 ± 0.6,–,5.66 ± 0.129
CCCCCC(C)=O [2-heptanone],-36 ± 0.6,-36.6 ± 0.4,4.56 ± 0.108
CCCCCCCCCCC(C)=O [2-dodecanone],21 ± 0.6,21.12 ± 0.39,9.44 ± 0.201
CCCCCCCCCCO [decan-1-ol],6.4 ± 0.6,–,7.5 ± 0.165
CCCCCCCCCCCC(C)=O [2-tridecanone],27.7 ± 0.6,28.60 ± 0.39,10.5 ± 0.222
